The values below come from PMC8787486 (mBio, 2022).

One data set deals with T1, LdtMab4 (Mycobacteroides abscessus, UniProt B1MKW1).
T1 construct: gene MAB_4537c
T1 sequence (B1MKW1 42-333): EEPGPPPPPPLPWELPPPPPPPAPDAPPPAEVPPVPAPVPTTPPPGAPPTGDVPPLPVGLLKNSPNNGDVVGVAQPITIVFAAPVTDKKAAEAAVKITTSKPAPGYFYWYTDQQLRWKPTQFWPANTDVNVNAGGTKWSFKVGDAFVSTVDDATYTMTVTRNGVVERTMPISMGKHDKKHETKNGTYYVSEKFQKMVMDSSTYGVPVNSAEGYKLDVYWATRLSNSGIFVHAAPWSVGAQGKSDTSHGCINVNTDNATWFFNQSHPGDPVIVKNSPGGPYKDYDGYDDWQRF
Put plainly: timed ESI-MS of intact protein, +[…] Da carbamoyl-enzyme adduct after […] h. In kind it is binding.

The next data set concerns the target T2, LdtMab2 (Mycobacteroides abscessus, UniProt B1MMQ4).
T2 construct: gene MAB_1530
T2 sequence (B1MMQ4 42-406): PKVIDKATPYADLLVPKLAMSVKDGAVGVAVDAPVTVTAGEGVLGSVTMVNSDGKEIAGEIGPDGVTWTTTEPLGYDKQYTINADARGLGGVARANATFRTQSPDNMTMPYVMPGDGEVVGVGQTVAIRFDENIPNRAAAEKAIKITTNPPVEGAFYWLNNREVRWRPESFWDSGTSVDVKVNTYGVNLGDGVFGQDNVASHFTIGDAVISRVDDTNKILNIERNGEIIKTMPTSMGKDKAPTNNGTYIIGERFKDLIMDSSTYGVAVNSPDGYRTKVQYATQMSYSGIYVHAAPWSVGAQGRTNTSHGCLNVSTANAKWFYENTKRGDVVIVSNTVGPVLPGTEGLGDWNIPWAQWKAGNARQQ
Described as above. In kind it is binding.

The next data set has as its target T3, BlaMab (Mycobacteroides abscessus, UniProt B1MCI3).
T3 construct: gene MAB_2875
Put plainly: nitrocefin competition kinetics with purified enzyme; ESI-MS carbamoyl-enzyme adduct (+[…] Da); Kd = koff/(k2/K). In kind it is biochemical.

In data set [1] the test system is O=C(Cc1cccs1)N[C@@H]1C(=O)N2C(C(=O)O)=C(/C=C/c3ccc([N+](=O)[O-])cc3[N+](=O)[O-])CS[C@H]12. Put plainly: purified protein. Format: biochemical, Mycobacteroides abscessus.

Broadly, the Kd is the free concentration of one partner at which half of the binding sites on the other are occupied at equilibrium, for simple one-to-one binding. Regarding `CC1=C[C@@H]2CN(C(=O)N2OS(=O)(=O)O)[C@@H]1C(N)=O` [DUR, durlobactam], the “timed ESI-MS of intact protein, +276 Da carbamoyl-enzyme adduct after 2 h” value at LdtMab4 was “DUR formed carbamoyl-enzyme complexes with D,D-c (Fig. 3B), LdtMab2, and LdtMab4 (Fig. 3C and E)”. For the same compound, the “timed ESI-MS of intact protein, +278 Da carbamoyl-enzyme adduct after 2 h” value at LdtMab2 is “DUR formed carbamoyl-enzyme complexes with D,D-c (Fig. 3B), LdtMab2, and LdtMab4 (Fig. 3C and E)”. Further, the affinity on BlaMab, expressed as Kd, was 0.2 ± 0.1 nM.
The term Km denotes the substrate concentration at which the rate is half of its maximum. In the case of “BlaMab (Mycobacteroides abscessus ATCC 19977)”, the Km in data set [1] stood at 22 µM.
